Assay results from patent publication US10662187B2, “Bruton's tyrosine kinase inhibitors” (Zibo Biopolar Changsheng Pharmaceutical Co. Ltd., priority 2016, dated 2020).

Legend:
BTK [1] = molecular target: T1, BTK (Homo sapiens (Human), UniProt Q06187); test: Btk kinase assay (HTRF); type: biochemical; conditions: [ATP]=80 μM, BTK=3.4 nM; read-out: BTK Inhibition
Procedure, shortened: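 HTRF read-out with enzyme, inhibitor, ATP and 1 μM peptide substrate in 50 mM Hepes pH 7.0, 0.02% NaN3, 0.01% BSA, 0.1 mM orthovanadate. Activity measured across compound concentrations against no-inhibitor controls, with no-enzyme wells as baseline.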
Target sequence in this assay (Q06187 whole entry, species assumed): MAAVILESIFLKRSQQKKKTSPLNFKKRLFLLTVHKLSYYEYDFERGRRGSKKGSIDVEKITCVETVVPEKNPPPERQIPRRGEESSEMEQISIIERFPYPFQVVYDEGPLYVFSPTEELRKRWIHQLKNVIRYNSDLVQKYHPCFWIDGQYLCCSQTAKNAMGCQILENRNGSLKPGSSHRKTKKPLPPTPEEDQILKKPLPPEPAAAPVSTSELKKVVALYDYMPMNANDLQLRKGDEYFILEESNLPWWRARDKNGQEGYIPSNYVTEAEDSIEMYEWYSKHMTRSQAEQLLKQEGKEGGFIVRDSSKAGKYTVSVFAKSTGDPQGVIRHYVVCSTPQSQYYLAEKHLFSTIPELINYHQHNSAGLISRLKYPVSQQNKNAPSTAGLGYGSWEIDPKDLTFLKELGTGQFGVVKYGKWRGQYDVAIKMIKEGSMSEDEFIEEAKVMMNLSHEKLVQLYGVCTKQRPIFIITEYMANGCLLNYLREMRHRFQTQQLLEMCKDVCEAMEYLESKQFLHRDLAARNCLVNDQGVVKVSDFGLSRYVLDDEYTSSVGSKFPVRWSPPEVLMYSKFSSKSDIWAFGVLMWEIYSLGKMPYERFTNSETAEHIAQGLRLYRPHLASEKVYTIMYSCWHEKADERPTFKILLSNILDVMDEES

Btk [2] = molecular target: Btk (Mus musculus (Mouse), UniProt P35991); test: Btk occupancy in vivo (PBMCs or splenocytes, PCI-33380 labeling); conditions: after 4 hours, Babc/L mice
Chain of Btk (P35991 whole entry): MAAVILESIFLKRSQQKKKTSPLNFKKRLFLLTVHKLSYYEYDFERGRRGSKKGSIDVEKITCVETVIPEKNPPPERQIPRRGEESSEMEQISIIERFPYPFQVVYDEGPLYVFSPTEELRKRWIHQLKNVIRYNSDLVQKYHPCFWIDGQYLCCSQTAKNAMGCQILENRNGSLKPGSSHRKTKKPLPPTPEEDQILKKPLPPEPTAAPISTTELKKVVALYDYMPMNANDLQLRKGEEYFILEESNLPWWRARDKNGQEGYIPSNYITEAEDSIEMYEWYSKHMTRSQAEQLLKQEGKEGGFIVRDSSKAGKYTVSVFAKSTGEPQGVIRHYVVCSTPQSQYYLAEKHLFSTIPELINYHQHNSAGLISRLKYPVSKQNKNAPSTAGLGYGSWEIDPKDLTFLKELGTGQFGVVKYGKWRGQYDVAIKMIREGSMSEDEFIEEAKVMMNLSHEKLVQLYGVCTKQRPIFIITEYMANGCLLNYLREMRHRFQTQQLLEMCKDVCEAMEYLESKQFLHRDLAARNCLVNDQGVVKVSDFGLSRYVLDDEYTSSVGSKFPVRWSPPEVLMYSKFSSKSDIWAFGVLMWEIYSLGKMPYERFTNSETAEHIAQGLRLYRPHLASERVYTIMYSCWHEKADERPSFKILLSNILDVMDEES
Procedure: For analysis of Btk occupancy in Babc/L mice following oral dosing of compounds after 4 hours. Isolating peripheral blood mononuclear cells (PBMCs) with mouse peripheral blood separation kit (Hao Yang Biological Manufacture CO., LTD, Tianjin) were collected from Babc/L mice (1 ml blood from two mice). Spleens were processed to splenocytes followed by 5 min incubation in red blood cell lysing buffer (from mouse peripheral blood separation kit). PBMCs or splenocytes were then PCI-33380-labeled and lysates analyzed by fluorescent gel scanning as described in cellular assays.

BTK [3] = molecular target: T1, BTK; test: Btk occupancy in cellular assays (PCI-33380 labeling, Jeko-1 cells); type: cell-based; conditions: 1.5 h pre-incubation with compound, PCI-33380 5 μM 1 h
Procedure: Btk Occupancy in Cellular Assays
For PCI-33380 labeling of human B cells, 10^6 Jeko-1 cells were pre-incubated with compound for 1.5 h before labeling. Then cells were treated with PCI-33380 at 5 μM for 1 h. Washed, lysed in Ripa buffer containing sample reducing agent, and analyzed by SDS/PAGE and fluorescent gel scanning using a Typhoon scanner 9500 (GE Healthcare) (Ex, 532 nm; Em, 555 nm). The gel was then blotted and total Btk levels detected by standard Western blot with Btk antibody (CST).
Target sequence in this assay (Q06187 whole entry): as the sequence (Q06187 whole entry, species assumed) above

Ramos cells = test: Calcium flux assay, anti-IgM stimulated Ramos cells; type: cell-based; conditions: Ramos cells stimulated with goat anti-human IgM antibody 10 μg/ml; read-out: Ramos Ca Flux
Procedure: Calcium FluxAssay Calcium flux fluorescence-based assays were performed in […] (Hamamatsu Photonics) fluorometric imaging plate reader according to manufacturer instructions. […] Then 12.5 […] 2× dye loading solution (Fluo-4 NW Calcium Assay Kits, Invitrogen) was added per well of a 384-well plate. Afterwards, actively growing Ramos cells (ATCC) in RPM1640 medium supplemented with 10% FBS (Invitrogen) were washed and re-plated in assay buffer (from Fluo-4 NW Calcium Assay Kits, Invitrogen) to approximately 6.4×10^6/ml (80000 cells/12.5 μL in 384-well plates). The plates were incubated at 37° C. for 30 minutes, then at room temperature for an additional 30 minutes. The plates were now ready to be used in an experiment. Immediately after the transfer and a 10-s recording of baseline fluorescence, the compound treated cells were stimulated with a goat anti-human IgM antibody (10 μg/ml; Jackson Immuno Research) and read in a FDSS for 240 seconds. Difference between the signal and that at baseline, designated adjusted relative fluorescence unit, was calculated by using a custom Excel (Microsoft, Redmond, Wash.) template to determine IgM-induced calcium influx and its inhibition by compounds. The table belows show the result.

Row | SMILES | IC50 (BTK [1]) [µM] | concentration sufficient to fully occupy the active site of Btk (BTK [3]) [nM] | IC50 (Ramos cells) [µM] | Btk occupancy in vivo (Btk [2]; 5 mg/kg single oral dose) | Btk occupancy in vivo (Btk [2]; 10 mg/kg single oral dose)
1 | C=CC(=O)N1CCC[C@@H](n2nc(-c3ccc(Oc4cccc(OC)c4Cl)cc3)c3cnccc32)C1 [Compound 2, (R)-1-(3-(3-(4-(2-chloro-3-methoxyphenoxy)phenyl)-1H-pyrazolo[4,3-c]pyridin-1-yl)piperidin-1-yl)prop-2-en-1-one] | < 0.01 | 100 |  |  | full occupancy
2 | C=CC(=O)N1CC[C@@H](n2nc(-c3ccc(Oc4cccc(OC)c4F)cc3)c3cnccc32)C1 [Compound 3, (R)-1-(3-(3-(4-(2-fluoro-3-methoxyphenoxy)phenyl)-1H-pyrazolo[4,3-c]pyridin-1-yl)pyrrolidin-1-yl)prop-2-en-1-one] | < 0.01 | 50 |  |  | full occupancy
3 | C=CC(=O)N1CC[C@@H](n2nc(-c3ccc(Oc4cccc(F)c4Cl)cc3)c3cnccc32)C1 [Compound 4, (R)-1-(3-(3-(4-(2-chloro-3-fluorophenoxy)phenyl)-1H-pyrazolo[4,3-c]pyridin-1-yl)pyrrolidin-1-yl)prop-2-en-1-one] | < 0.01 | 100 |  |  | full occupancy
4 | C=CC(=O)N1CCC[C@@H](n2nc(-c3ccc(Oc4cccc(Cl)c4F)cc3)c3cnccc32)C1 [Compound 20, (R)-1-(3-(3-(4-(3-chloro-2-fluorophenoxy)phenyl)-1H-pyrazolo[4,3-c]pyridin-1-yl)piperidin-1-yl)prop-2-en-1-one] | < 0.01 |  | 0.01 to 0.1 |  | 
5 | C=CC(=O)N1CC[C@@H](n2nc(-c3ccc(Oc4ccccc4)c(F)c3)c3cnccc32)C1 [Compound 61, (R)-1-(3-(3-(3-fluoro-4-phenoxyphenyl)-1H-pyrazolo[4,3-c]pyridin-1-yl)pyrrolidin-1-yl)prop-2-en-1-one] | < 0.01 |  | 0.1 to 1 |  | 
6 | C=CC(=O)N1CCC[C@@H](n2nc(-c3ccc(Oc4cccc(F)c4)cc3)c3cnccc32)C1 [Compound 62, (R)-1-(3-(3-(4-(3-fluorophenoxy)phenyl)-1H-pyrazolo[4,3-c]pyridin-1-yl)piperidin-1-yl)prop-2-en-1-one] | < 0.01 |  | 0.1 to 1 |  | 
7 | C=CC(=O)N1CC[C@@H](n2nc(-c3ccc(Oc4cccc(F)c4)cc3)c3cnccc32)C1 [Compound 63, (R)-1-(3-(3-(4-(3-fluorophenoxy)phenyl)-1H-pyrazolo[4,3-c]pyridin-1-yl)pyrrolidin-1-yl)prop-2-en-1-one] | < 0.01 |  | 0.1 to 1 |  | 
8 | C=CC(=O)N1CC[C@@H](n2nc(-c3ccc(Oc4cccc(OC)c4)cc3)c3cnccc32)C1 [Compound 64, (R)-1-(3-(3-(4-(3-methoxyphenoxy)phenyl)-1H-pyrazolo[4,3-c]pyridin-1-yl)pyrrolidin-1-yl)prop-2-en-1-one] | < 0.01 |  | 0.01 to 0.1 |  | 
9 | C=CC(=O)N1CC[C@@H](n2nc(-c3ccc(Oc4cccc(OC)c4F)cc3)c3cncc(OCC)c32)C1 [Compound 80, (R)-1-(3-(7-cthoxy-3-(4-(2-fluoro-3-methoxyphenoxy)phenyl)-1H-pyrazolo[4,3-c]pyridin-1-yl)pyrrolidin-1-yl)prop-2-en-1-one] | < 0.01 | 50 |  |  | 
10 | C=CC(=O)N1CCCC1Cn1nc(-c2ccc(Oc3cccc(OC)c3F)cc2)c2cncc(OC)c21 (stereo not shown) [Compound 91, 1-(2-((3-(4-(2-fluoro-3-methoxyphenoxy)phenyl)-7-methoxy-1H-pyrazolo[4,3-c]pyridin-1-yl)methyl)pyrrolidin-1-yl)prop-2-en-1-one] | < 0.01 |  |  | full occupancy | 
11 | C=CC(=O)N1CCC[C@@H](n2nc(-c3ccc(Oc4cccc(OC)c4F)cc3)c3cncc(OCCO)c32)C1 [Compound 98, (R)-1-(3-(3-(4-(2-fluoro-3-methoxyphenoxy)phenyl)-7-(2-hydroxyethoxy) 1H-pyrazolo[4,3-c]pyridin-1-yl)piperidin-1-yl)prop-2-en-1-one] | < 0.01 | 100 |  |  | 

Continued, in another order:

Row | IC50 (BTK [1]) [µM] | concentration sufficient to fully occupy the active site of Btk (BTK [3]) [nM] | IC50 (Ramos cells) [µM] | Btk occupancy in vivo (Btk [2]; 5 mg/kg single oral dose) | SMILES | Btk occupancy in vivo (Btk [2]; 10 mg/kg single oral dose)
12 | < 0.01 |  | 0.1 to 1 |  | C=CC(=O)N1CC[C@@H](n2nc(-c3ccc(Oc4ccccc4)c(Cl)c3)c3cnccc32)C1 [Compound 11, (R)-1-(3-(3-(3-chloro-4-phenoxyphenyl)-1H-pyrazolo[4,3-c]pyridin-1-yl)pyrrolidin-1-yl)prop-2-en-1-one] | 
13 | < 0.01 | 100 | 0.01 to 0.1 |  | C=CC(=O)N1CCC[C@@H](n2nc(-c3ccc(Oc4cccc(F)c4F)cc3)c3cnccc32)C1 [Compound 17, (R)-1-(3-(3-(4-(2,3-difluorophenoxy)phenyl)-1H-pyrazolo[4,3-c]pyridin-1-yl)piperidin-1-yl)prop-2-en-1-one] | 
14 | < 0.01 |  | 0.01 to 0.1 |  | C=CC(=O)N1CC[C@@H](n2nc(-c3ccc(Oc4cccc(F)c4F)cc3)c3cnccc32)C1 [Compound 18, (R)-1-(3-(3-(4-(2,3-difluorophenoxy)phenyl)-1H-pyrazolo[4,3-c]pyridin-1-yl)pyrrolidin-1-yl)prop-2-en-1-one] | 
15 | < 0.01 |  | 0.01 to 0.1 |  | C=CC(=O)N1CC[C@@H](n2nc(-c3ccc(Oc4cccc(Cl)c4F)cc3)c3cnccc32)C1 [Compound 19, (R)-1-(3-(3-(4-(3-chloro-2-fluorophenoxy)phenyl)-1H-pyrazolo[4,3-c]pyridin-1-yl)pyrrolidin-1-yl)prop-2-en-1-one] | 
16 | < 0.01 | 100 | 0.01 to 0.1 |  | C=CC(=O)N1CC[C@@H](n2nc3ccncc3c2-c2ccc(Oc3cccc(Cl)c3Cl)cc2)C1 [Compound 41, (R)-1-(3-(3-(4-(2,3-dichlorophenoxy)phenyl)-2H-pyrazolo[4,3-c]pyridin-2-yl)pyrrolidin-1-yl)prop-2-en-1-one] | 
17 | < 0.01 | 100 | 0.01 to 0.1 |  | C=CC(=O)N1CCC[C@@H](n2nc3ccncc3c2-c2ccc(Oc3cccc(Cl)c3Cl)cc2)C1 [Compound 43, (R)-1-(3-(3-(4-(2,3-dichlorophenoxy)phenyl)-2H-pyrazolo[4,3-c]pyridin-2-yl)piperidin-1-yl)prop-2-en-1-one] | 
18 | < 0.01 |  | 0.01 to 0.1 |  | C=CC(=O)N1CC[C@@H](n2nc(-c3ccc(Sc4cccc(F)c4)cc3)c3cnccc32)C1 [Compound 58, (R)-1-(3-(3-(4-((3-fluorophenyl)thio)phenyl)-1H-pyrazolo[4,3-c]pyridin-1-yl)pyrrolidin-1-yl)prop-2-en-1-one] | 
19 | < 0.01 | 50 |  |  | C=CC(=O)N1CC[C@@H](n2nc(-c3ccc(Oc4cccc(OC)c4F)cc3)c3cncc(OC)c32)C1 [Compound 79, (R)-1-(3-(3-(4-(2-fluoro-3-methoxyphenoxy)phenyl)-7-methoxy-1H-pyrazolo[4,3-c]pyridin-1-yl)pyrrolidin-1-yl)prop-2-en-1-one] | 
20 | < 0.01 | 100 |  |  | C=CC(=O)N1CCC[C@@H](n2nc(-c3ccc(Oc4cccc(OC)c4F)cc3)c3cncc(OC4CCOC4)c32)C1 (stereo partly drawn) [Compound 99, 1-((3R)-3-(3-(4-(2-fluoro-3-methoxyphenoxy)phenyl)-7-((tctrahydrofuran-3-yl)oxy)-1H-pyrazolo[4,3-c]pyridin-1-yl)piperidin-1-yl)prop-2-en-1-one] | 
